Data from PMC8757604 (Journal of Enzyme Inhibition and Medicinal Chemistry, 2022).

Biological target: α-Glucosidase from Saccharomyces cerevisiae (Saccharomyces cerevisiae, UniProt P53341)
Test: biochemical
Type: biochemical
Conditions: mean ± SD; enzyme 0.1 U/mL, p-NPG 0.25 mM, pH 6.8, 37 °C; read-out: α-Glucosidase inhibition (IC50)

Sequence of α-Glucosidase from Saccharomyces cerevisiae (P53341 whole entry): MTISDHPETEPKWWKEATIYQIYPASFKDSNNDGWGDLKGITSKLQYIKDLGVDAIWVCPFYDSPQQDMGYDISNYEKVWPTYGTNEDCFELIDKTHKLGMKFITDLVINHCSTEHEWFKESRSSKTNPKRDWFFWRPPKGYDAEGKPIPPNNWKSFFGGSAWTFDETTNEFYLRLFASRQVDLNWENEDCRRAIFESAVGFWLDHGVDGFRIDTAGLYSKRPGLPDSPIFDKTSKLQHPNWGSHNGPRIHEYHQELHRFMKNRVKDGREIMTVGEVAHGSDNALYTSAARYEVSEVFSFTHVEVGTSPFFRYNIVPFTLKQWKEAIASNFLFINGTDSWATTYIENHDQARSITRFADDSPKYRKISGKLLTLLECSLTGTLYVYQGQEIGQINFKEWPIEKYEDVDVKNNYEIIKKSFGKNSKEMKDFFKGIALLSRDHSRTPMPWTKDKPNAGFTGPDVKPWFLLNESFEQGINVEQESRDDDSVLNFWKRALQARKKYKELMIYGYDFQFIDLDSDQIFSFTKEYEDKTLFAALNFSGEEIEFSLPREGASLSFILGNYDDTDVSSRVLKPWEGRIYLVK

SMILES	IC50
CC1(C)CC[C@]2(C(=O)O)CC[C@]3(C)C(=CCC4[C@@]5(C)CC/C(=N\OC(=O)c6ccc(F)cc6)C(C)(C)C5CC[C@]43C)C2C1 (some centres unmarked) [Compound 3n]	1.96 ± 0.25 µM
CC1(C)CC[C@]2(C(=O)O)CC[C@]3(C)C(=CCC4[C@@]5(C)CC/C(=N\OC(=O)c6ccc(Cl)cc6)C(C)(C)C5CC[C@]43C)C2C1 (some centres unmarked) [Compound 3o]	1.74 ± 0.14 µM
CC1(C)CC[C@]2(C(=O)O)CC[C@]3(C)C(=CCC4[C@@]5(C)CC/C(=N\OC(=O)c6ccc(Br)cc6)C(C)(C)C5CC[C@]43C)C2C1 (some centres unmarked) [Compound 3p]	1.81 ± 0.05 µM
CC1(C)CC[C@]2(C(=O)O)CC[C@]3(C)C(=CCC4[C@@]5(C)CC/C(=N\OC(=O)c6ccc(C(F)(F)F)cc6)C(C)(C)C5CC[C@]43C)C2C1 (some centres unmarked) [Compound 3q]	3.43 ± 0.17 µM
CC1(C)CC[C@]2(C(=O)O)CC[C@]3(C)C(=CCC4[C@@]5(C)CC/C(=N\OC(=O)c6ccc([N+](=O)[O-])cc6)C(C)(C)C5CC[C@]43C)C2C1 (some centres unmarked) [Compound 3r]	1.41 ± 0.12 µM
CC1(C)CC[C@]2(C(=O)O)CC[C@]3(C)C(=CCC4[C@@]5(C)CC/C(=N\OC(=O)c6ccc7c(c6)OCO7)C(C)(C)C5CC[C@]43C)C2C1 (some centres unmarked) [Compound 3s]	1.37 ± 0.06 µM

These reach a lower IC50. Values come first.

IC50	SMILES
0.67 ± 0.04 µM	CC1(C)CC[C@]2(C(=O)O)CC[C@]3(C)C(=CCC4[C@@]5(C)CC/C(=N\OC(=O)c6ccccc6)C(C)(C)C5CC[C@]43C)C2C1 (some centres unmarked) [Compound 3k]
0.99 ± 0.05 µM	Cc1ccc(C(=O)O/N=C2\CC[C@@]3(C)C(CC[C@]4(C)C3CC=C3C5CC(C)(C)CC[C@]5(C(=O)O)CC[C@]34C)C2(C)C)cc1 (some centres unmarked) [Compound 3l]
1.1 ± 0.1 µM	COc1ccc(C(=O)O/N=C2\CC[C@@]3(C)C(CC[C@]4(C)C3CC=C3C5CC(C)(C)CC[C@]5(C(=O)O)CC[C@]34C)C2(C)C)cc1 (some centres unmarked) [Compound 3m]
0.91 ± 0.04 µM	CC1(C)CC[C@]2(C(=O)O)CC[C@]3(C)C(=CCC4[C@@]5(C)CC/C(=N\OC(=O)c6ccc(O)cc6)C(C)(C)C5CC[C@]43C)C2C1 (some centres unmarked) [Compound 3t]

Biological target: T1, α-amylase from hog pancreas (Sus scrofa, UniProt P00690)
T1 sequence (P00690 16-511): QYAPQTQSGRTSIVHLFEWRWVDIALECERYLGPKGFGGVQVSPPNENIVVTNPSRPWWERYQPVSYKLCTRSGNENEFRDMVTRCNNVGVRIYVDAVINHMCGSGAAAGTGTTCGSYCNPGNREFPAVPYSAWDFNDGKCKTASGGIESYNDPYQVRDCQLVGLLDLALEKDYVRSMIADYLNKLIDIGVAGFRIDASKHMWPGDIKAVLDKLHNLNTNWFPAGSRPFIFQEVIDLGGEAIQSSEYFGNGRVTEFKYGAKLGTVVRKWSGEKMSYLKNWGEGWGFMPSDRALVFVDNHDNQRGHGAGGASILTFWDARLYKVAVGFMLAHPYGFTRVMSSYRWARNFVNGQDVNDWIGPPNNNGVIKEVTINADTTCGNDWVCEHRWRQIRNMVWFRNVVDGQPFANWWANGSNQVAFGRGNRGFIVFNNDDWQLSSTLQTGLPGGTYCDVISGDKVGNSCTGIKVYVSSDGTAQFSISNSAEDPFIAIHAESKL
Test: α-Amylase inhibition assay (starch/DNS, absorbance 540 nm)
Conditions: not given

SMILES	IC50
CC1(C)CC[C@]2(C(=O)O)CC[C@]3(C)C(=CCC4[C@@]5(C)CC/C(=N\OC(=O)c6ccc(F)cc6)C(C)(C)C5CC[C@]43C)C2C1 (some centres unmarked) [Compound 3n]	70.2 ± 2.53 µM
CC1(C)CC[C@]2(C(=O)O)CC[C@]3(C)C(=CCC4[C@@]5(C)CC/C(=N\OC(=O)c6ccc(Cl)cc6)C(C)(C)C5CC[C@]43C)C2C1 (some centres unmarked) [Compound 3o]	26.3 ± 1.61 µM
CC1(C)CC[C@]2(C(=O)O)CC[C@]3(C)C(=CCC4[C@@]5(C)CC/C(=N\OC(=O)c6ccc(Br)cc6)C(C)(C)C5CC[C@]43C)C2C1 (some centres unmarked) [Compound 3p]	15.9 ± 1.75 µM
CC1(C)CC[C@]2(C(=O)O)CC[C@]3(C)C(=CCC4[C@@]5(C)CC/C(=N\OC(=O)c6ccc(C(F)(F)F)cc6)C(C)(C)C5CC[C@]43C)C2C1 (some centres unmarked) [Compound 3q]	33.6 ± 1.93 µM
CC1(C)CC[C@]2(C(=O)O)CC[C@]3(C)C(=CCC4[C@@]5(C)CC/C(=N\OC(=O)c6ccc([N+](=O)[O-])cc6)C(C)(C)C5CC[C@]43C)C2C1 (some centres unmarked) [Compound 3r]	70.7 ± 1.25 µM
CC1(C)CC[C@]2(C(=O)O)CC[C@]3(C)C(=CCC4[C@@]5(C)CC/C(=N\OC(=O)c6ccc7c(c6)OCO7)C(C)(C)C5CC[C@]43C)C2C1 (some centres unmarked) [Compound 3s]	18.7 ± 1.29 µM

Continued, values first:

IC50	SMILES
25.6 ± 1.66 µM	CC1(C)CC[C@]2(C(=O)O)CC[C@]3(C)C(=CCC4[C@@]5(C)CC/C(=N\OC(=O)c6ccccc6)C(C)(C)C5CC[C@]43C)C2C1 (some centres unmarked) [Compound 3k]
55.3 ± 2.39 µM	Cc1ccc(C(=O)O/N=C2\CC[C@@]3(C)C(CC[C@]4(C)C3CC=C3C5CC(C)(C)CC[C@]5(C(=O)O)CC[C@]34C)C2(C)C)cc1 (some centres unmarked) [Compound 3l]
35.5 ± 2.41 µM	COc1ccc(C(=O)O/N=C2\CC[C@@]3(C)C(CC[C@]4(C)C3CC=C3C5CC(C)(C)CC[C@]5(C(=O)O)CC[C@]34C)C2(C)C)cc1 (some centres unmarked) [Compound 3m]
152 ± 4.24 µM	CC1(C)CC[C@]2(C(=O)O)CC[C@]3(C)C(=CCC4[C@@]5(C)CC/C(=N\OC(=O)c6ccc(O)cc6)C(C)(C)C5CC[C@]43C)C2C1 (some centres unmarked) [Compound 3t]
